In experiment [1] the target is Yeast α-glucosidase enzyme. The experiment in a line: α-Glucosidase inhibition assay (PNPG substrate). Format: biochemical. The settings on record: for IC50 / IC50 (μg/mL), α-glucosidase inhibitory activity: NA = no inhibitory activity, acarbose positive control. The method, then:
Yeast α-glucosidase enzyme was used in this study. In general, α-glucosidase enzymes can be obtained from several sources, for example, Saccharomyces cerevisiae, Rattus norvegicus, and GANC-human.
The assays were performed following previous protocols. […] Each sample was initially dissolved in 50% DMSO. Then, 0.1 U/mL of α-glucosidase (40 μL) in phosphate buffer (pH 6.8) was added to each well of a 96-well plate which contained the sample solution (10 μL). The plate was pre-incubated at 37 °C for 10 min. Then, 2 mM p-nitrophenol-α-D-glucopyranoside (50 μL) was added, and the mixture was incubated again at 37 °C for 20 min. Finally, 1 M Na2CO3 solution (100 μL) was added to terminate the reaction. The absorbance of the mixture was measured at 405 nm using a microplate reader. Two-fold serial dilution was performed for IC50 determination. The drug acarbose was used as the positive control.

The test system of experiment [2] is Yeast α-glucosidase enzyme. The experiment in a line: Enzyme kinetics study, Lineweaver–Burk plot and secondary plot. The experiment is classed as biochemical. The settings on record: for Mode of enzyme inhibition: from Lineweaver–Burk plot; for Km / Vmax: PNPG 0.25–2.0 mM. The procedure:
A kinetics study was then performed on compound 3 to analyze the mode of enzyme inhibition using various substrate concentrations (0.25–2.0 mM).
The mode of enzyme inhibition of the test compound was determined using the double reciprocal Lineweaver–Burk plot (1/V vs. 1/[S]). The experiment was performed by varying the PNPG concentrations (0.25, 0.5, 1.0, and 2.0 mM) in the absence or presence of compound 3 (4 μM and 8 μM) or acarbose (930 μM and 465 μM). The secondary plot was constructed by replotting the slopes of the lines against inhibitor concentrations, and the Ki was calculated from the line equation of the plot.

Consider ten compounds from paper PMC7922108, “Three Novel Biphenanthrene Derivatives and a New Phenylpropanoid Ester from Aerides multiflora and Their α-Glucosidase Inhibitory Activity” (Plants, 2021).

Molecules are shown by their SMILES. Values after ≈ are worked out from the molar mass of the structure shown. “Also recorded” adds a separate entry of the source.

By IC50 is commonly meant the concentration that inhibits the measured activity by half. A high value points to weaker potency in that assay. Turning to `COc1cc(O)cc2c1-c1cc(O)c(O)cc1CC2` [5-methoxy-9,10-dihydrophenanthrene-2,3,7-triol], in experiment [1], the IC50 came to 115 ± 9.1 µM and the “IC50 (μg/mL), α-glucosidase inhibitory activity” value is 29.7 ± 2.3 µg/mL (≈ 115 µM).
Regarding `COc1cc2c(cc1O)CCc1cc(O)cc(OC)c1-2` [6-Methoxy coelonin (5), 6-methoxycoelonin], in experiment [1], the half-maximal inhibitory concentration (IC50) was found to be 225 ± 7.8 µM and the “IC50 (μg/mL), α-glucosidase inhibitory activity” value came out at 61.2 ± 2.2 µg/mL (≈ 225 µM).
In the same order, the values of `COc1cc2c(cc1O)CCc1c(Oc3cc4c(cc3OC)-c3c(cc(O)cc3OC)CC4)c(O)cc(OC)c1-2` [Aerimultin A (1), aerimultin A] are 30.9 ± 1.9 µM and 16.8 ± 1.0 µg/mL (≈ 31 µM).
On to `COc1cc2c(ccc3c(-c4c(O)cc5c6c4ccc4cc(O)c(OC)c(c46)CO5)c(O)cc(OC)c32)cc1O` [Aerimultin B (2), aerimultin B], for which, in experiment [1], 77 ± 2.5 µM corresponded to half-maximal inhibition (IC50) and the “IC50 (μg/mL), α-glucosidase inhibitory activity” value amounted to 41.8 ± 1.3 µg/mL (≈ 77.9 µM).
As a reminder, the Ki is the equilibrium dissociation constant of an inhibitor or competing ligand from its target. A lower Ki goes with tighter binding. One may read the Km as the concentration of substrate that gives half-maximal velocity. Take `COc1cc(O)c(-c2c(O)cc(OC)c3c2ccc2cc(O)c(O)cc23)c2ccc3cc(O)c(O)cc3c12` [Aerimultin C (3), aerimultin C]: in experiment [1], the “α-Glucosidase inhibitory activity (in words)” value was “most potent activity”; the IC50 came to 5.2 ± 0.7 µM; the “IC50 (μg/mL), α-glucosidase inhibitory activity” value was found to be 2.7 ± 0.4 µg/mL (≈ 5.29 µM). Further, the “Mode of enzyme inhibition” value in experiment [2] is reported as “non-competitive inhibition; also recorded: potent non-competitive inhibitor”. In addition, the “Mode of enzyme inhibition” value in experiment [2] (listed as aerimultin (3)) is given as “non-competitive type of inhibition”. In experiment [2] (from secondary plot (slopes vs inhibitor concentrations)), this compound registered a Ki of 4.18 µM. In experiment [2] (inhibitor dose 4 μM), the Michaelis-Menten constant (Km) was 1220 µM and the Vmax is 0.055 ∆OD/min. For the same compound, in experiment [2] (inhibitor dose 8 μM), the Km amounted to 1200 µM and the Vmax is given as 0.035 ∆OD/min.
In the case of `COc1cc2c(ccc3c(-c4c(O)cc(OC)c5c4ccc4cc(O)c(OC)cc45)c(O)cc(OC)c32)cc1O` [Agrostonin (8), agrostonin], in experiment [1], the IC50 amounted to 37.2 ± 4.5 µM and the “IC50 (μg/mL), α-glucosidase inhibitory activity” value worked out at 20.1 ± 2.5 µg/mL (≈ 37.3 µM).
Regarding `COc1cc(CCCOC(=O)CCc2ccc(O)cc2)ccc1O` [Dihydroconiferyl dihydro-p-coumarate (9), dihydroconiferyl dihydro-p-coumarate], in experiment [1], the 50% inhibitory concentration (IC50) stood at 267 ± 8.6 µM and the “IC50 (μg/mL), α-glucosidase inhibitory activity” value was 88.1 ± 2.9 µg/mL (≈ 267 µM).
Take `COc1cc(CCC(=O)OCCCc2cc(OC)c(O)c(OC)c2)ccc1O` [Dihydrosinapyl dihydroferulate (4), dihydrosinapyl dihydroferulate]: the “α-Glucosidase inhibitory activity (in words)” value in experiment [1] is given as “total loss of activity”.
On to `COc1cc(O)cc(CCc2ccc(O)c(OC)c2)c1` [Gigantol (6), gigantol], for which, in experiment [1], the half-maximal inhibitory concentration (IC50) came to 191 ± 6.8 µM and the “IC50 (μg/mL), α-glucosidase inhibitory activity” value is 52.5 ± 1.9 µg/mL (≈ 191 µM).
On to `COc1c(O)cc2c3c1COc1cc(O)cc(c1-3)CC2` [Imbricatin (7), imbricatin], for which, in experiment [1], half-maximal inhibition (IC50) required 166 ± 7.7 µM and the “IC50 (μg/mL), α-glucosidase inhibitory activity” value was 44.9 ± 2.1 µg/mL (≈ 166 µM).
